Data set [1] addresses T1, Top1 (Homo sapiens, UniProt P11387).
T1 sequence (P11387 1-765): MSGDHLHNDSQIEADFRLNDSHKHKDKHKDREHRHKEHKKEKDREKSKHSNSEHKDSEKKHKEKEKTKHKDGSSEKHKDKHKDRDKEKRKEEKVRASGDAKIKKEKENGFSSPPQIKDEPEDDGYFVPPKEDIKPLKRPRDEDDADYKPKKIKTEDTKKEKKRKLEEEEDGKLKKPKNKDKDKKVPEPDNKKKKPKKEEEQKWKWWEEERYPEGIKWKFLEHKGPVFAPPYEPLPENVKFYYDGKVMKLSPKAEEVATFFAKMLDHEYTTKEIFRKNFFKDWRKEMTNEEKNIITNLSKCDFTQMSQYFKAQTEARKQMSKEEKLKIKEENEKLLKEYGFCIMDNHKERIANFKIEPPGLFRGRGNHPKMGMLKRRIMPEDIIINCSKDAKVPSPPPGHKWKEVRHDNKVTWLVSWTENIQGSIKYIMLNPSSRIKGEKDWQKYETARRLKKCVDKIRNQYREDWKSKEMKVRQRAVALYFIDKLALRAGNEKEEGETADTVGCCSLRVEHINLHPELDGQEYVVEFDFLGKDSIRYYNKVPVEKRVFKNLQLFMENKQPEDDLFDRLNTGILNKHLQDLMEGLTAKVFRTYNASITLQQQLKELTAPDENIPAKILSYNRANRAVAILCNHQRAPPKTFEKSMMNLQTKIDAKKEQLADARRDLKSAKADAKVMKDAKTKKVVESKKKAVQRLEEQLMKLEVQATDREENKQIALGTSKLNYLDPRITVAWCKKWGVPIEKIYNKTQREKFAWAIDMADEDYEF
In words: Top1-mediated DNA cleavage assay. It is filed as biochemical. The settings on record: score based on the activity of 1 μM 1 (camptothecin); tested at 0.1, 1, 10, 100 μM. The protocol:
Approximately 2 nM radiolabeled DNA substrate was incubated with recombinant Top in 20 μL of reaction buffer [10 mM Tris-HCl (pH 7.5), 50 mM KCl, 5 mM MgCl2, 0.1 mM EDTA, and 15 μg/mL BSA] at 25° C. for 20 min in the presence of various concentrations of test compounds. […] Aliquots of each reaction mixture were subjected to 20% denaturing PAGE.
The Top1-mediated DNA cleavage assay was used to measure Top1 inhibitory activity. This assay measures the ability of the compound to stabilize DNA cleavage in a 3′-[^32P]-labeled DNA substrate via Top1 poisoning.

Data set [2] deals with recombinant TDP1 (Homo sapiens, UniProt Q9NUW8). In words: Recombinant TDP1 assay. It is filed as biochemical. The settings on record: recombinant TDP1, gel-based; read-out: TDP1: IC50 values for the inhibition of TDP1. The protocol:
A 5′-[^32P]-labeled single-stranded DNA oligonucleotide containing a 3′-phosphotyrosine (N14Y) was incubated at 1 nM with 10 pM recombinant TDP1 in the absence or presence of inhibitor for 15 min at room temperature in the LMP1 assay buffer containing 50 mM Tris HCl, pH 7.5, 80 mM KCl, 2 mM EDTA, 1 mM DTT, 40 μg/mL BSA, and 0.01% Tween-20^18. […] Gels were dried and exposed to a PhosphorImager screen (GE Healthcare). Gel images were scanned using a Typhoon 8600 (GE Healthcare), and densitometry analyses were performed using ImageQuant software (GE Healthcare).
TDP1 is involved in the repair of DNA damage that results from the action of Top1 poisons, which induce the formation of DNA-protein adducts that include a 3′-phosphotyrosyl linkage. The TDP1 inhibition assay assesses a test agent's ability to inhibit the enzyme-induced cleavage of a 5′-^32P, 3′-phosphotyrosyl-DNA oligonucleotide, called N14Y. Cleavage of the phosphodiester bond between the 3′-phosphate and tyrosine releases […] from the DNA oligonucleotide. The enzyme-processed DNA oligonucleotide lacking its 3′-phosphotyrosyl moiety is designated N14P. A schematic representation of the assay and a representative gel are shown in FIG. 2, and the TDP1 screening results are listed in Table 1.

The target of data set [3] is T2, recombinant human TDP2 (Homo sapiens, UniProt O95551).
T2 sequence (O95551 1-362): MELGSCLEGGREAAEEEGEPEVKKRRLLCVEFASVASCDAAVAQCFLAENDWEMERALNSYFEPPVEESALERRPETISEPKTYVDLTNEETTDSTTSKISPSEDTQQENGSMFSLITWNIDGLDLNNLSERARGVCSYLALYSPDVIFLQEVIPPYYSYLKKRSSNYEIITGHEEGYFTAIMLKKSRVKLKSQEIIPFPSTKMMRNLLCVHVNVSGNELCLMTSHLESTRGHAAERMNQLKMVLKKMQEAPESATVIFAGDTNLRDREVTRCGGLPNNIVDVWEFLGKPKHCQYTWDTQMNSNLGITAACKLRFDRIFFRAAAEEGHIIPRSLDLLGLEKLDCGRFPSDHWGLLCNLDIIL
The experiment in a line: Recombinant TDP2 assay. The settings on record: recombinant human TDP2, gel-based; read-out: TDP2: IC50 values for the inhibition of TDP2. It is filed as biochemical. The source says: Reactions were terminated and treated similarly to recombinant TDP1 reactions.
TDP2, as opposed to TDP1, cleaves the phosphotyrosyl linkage in 5′-phosphotyrosyl-DNA oligonucleotides.

Data set [4] relates to 60 human cancer cell lines. The experiment in a line: NCI-60 single-dose cytotoxicity assay. It is filed as cell-based. Conditions: mean-graph midpoint of percent growth of 60 human cancer cell lines, 10 μM drug, 48 h, relative to no-drug control and time zero. The protocol: (§1) The new indenoisoquinolines were evaluated for cancer cell growth inhibitory activities. The National Cancer Institute's NCI-60 cytotoxicity assay measures the ability of test agents to inhibit the growth of approximately 60 different cancer cell lines. In the initial single-dose assay, cells are treated with a 10 μM dose of test agent. The growth of treated cells versus untreated cells is then compared. If a test agent induces a sufficiently low mean growth percent, it is promoted to five-dose testing to determine a mean graph midpoint (MGM) GI50 value. In five-dose testing, cells are treated with test agent concentrations ranging from 10^−8 to 10^−4 M. The concentration required to achieve 50% growth inhibition in a particular cell line is calculated. In situations in which this value is greater than 100 μM or less than 0.01 μM, it is recorded as 100 μM and 0.01 μM, respectively. The values for each of the tested cell lines are averaged to obtain a mean graph midpoint (MGM) GI50 value. MGM GI50 values are often, but not always, determined from two separate rounds (Table 1).

In data set [5] the test system is Lung, HOP-62. The experiment in a line: NCI-60 five-dose cytotoxicity assay, HOP-62. Conditions: Homo sapiens, HOP-62, read-out: Cytotoxicity GI50, Lung, HOP-62. The protocol: as §1
Data set [6] relates to Colon, HCT-116. The experiment in a line: NCI-60 five-dose cytotoxicity assay, HCT-116. The settings on record: Homo sapiens, HCT-116, read-out: Cytotoxicity GI50, Colon, HCT-116. As for the experimental part: as §1
Data set [7] relates to Melanoma UACC-62. The experiment in a line: NCI-60 five-dose cytotoxicity assay, UACC-62. Conditions: Homo sapiens, UACC-62, read-out: Cytotoxicity GI50, Melanoma UACC-62. As for the experimental part:
as §1

In data set [8] the test system is Ovarian, OVCAR-3. The experiment in a line: NCI-60 five-dose cytotoxicity assay, OVCAR-3. The settings on record: Homo sapiens, OVCAR-3, read-out: Cytotoxicity GI50, Ovarian, OVCAR-3. The protocol:
as §1

Data set [9] concerns Renal, SN12C. The experiment in a line: NCI-60 five-dose cytotoxicity assay, SN12C. The settings on record: Homo sapiens, read-out: Cytotoxicity GI50, Renal, SN12C. As for the experimental part:
as §1

The subject of data set [10] is Prostate, DU-145. In words: NCI-60 five-dose cytotoxicity assay, DU-145. Conditions: Homo sapiens, DU-145, read-out: Cytotoxicity GI50, Prostate, DU-145. As for the experimental part:
as §1

In data set [11] the test system is Breast, MCF7. In words: NCI-60 five-dose cytotoxicity assay, MCF7. The settings on record: Homo sapiens, MCF7, read-out: Cytotoxicity GI50, Breast, MCF7. The protocol:
as §1

For data set [12], the system named is approximately 60 different cancer cell lines. In words: NCI-60 five-dose cytotoxicity assay, mean graph midpoint. The class given is cell-based. The settings on record: Homo sapiens; 5 dose assay, 10^−8-10^−4 M; average over tested cell lines; read-out: MGM: mean graph midpoint of growth inhibition (GI50). As for the experimental part:
as §1

“And” between values parts separate entries of the source, which are not always exact repeats. Equal entries are not always repeated. Structures can show the parent of a compound that is named as a salt. Some results are limits rather than exact numbers.

For orientation: IC50 means the concentration needed to halve the response being measured. For orientation: GI50 means the concentration at which growth is held to half of that of the control. What is called melting point is the temperature of the solid-liquid transition.

Chain of recombinant TDP1 (Q9NUW8 whole entry, species assumed): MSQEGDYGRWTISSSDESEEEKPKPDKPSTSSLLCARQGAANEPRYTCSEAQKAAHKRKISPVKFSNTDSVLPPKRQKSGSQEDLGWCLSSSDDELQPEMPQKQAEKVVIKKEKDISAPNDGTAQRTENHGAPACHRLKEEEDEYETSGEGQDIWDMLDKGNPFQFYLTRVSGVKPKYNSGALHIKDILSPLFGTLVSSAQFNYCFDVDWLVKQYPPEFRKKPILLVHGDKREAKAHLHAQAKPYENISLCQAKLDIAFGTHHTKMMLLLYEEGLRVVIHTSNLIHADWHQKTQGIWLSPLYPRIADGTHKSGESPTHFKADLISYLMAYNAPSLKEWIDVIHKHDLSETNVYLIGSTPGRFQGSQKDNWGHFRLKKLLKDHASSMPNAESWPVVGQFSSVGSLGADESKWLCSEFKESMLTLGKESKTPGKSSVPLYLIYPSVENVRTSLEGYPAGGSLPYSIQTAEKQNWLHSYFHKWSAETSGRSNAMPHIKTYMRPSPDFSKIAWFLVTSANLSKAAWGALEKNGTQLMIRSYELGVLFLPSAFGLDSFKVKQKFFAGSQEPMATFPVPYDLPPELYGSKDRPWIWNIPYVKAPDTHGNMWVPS

As to `NCCCn1c2c(c3cccnc3c1=O)C(=O)c1ccccc1-2` [Compound 60, 6-(3-Aminopropyl)-4-aza-5,6-dihydro-5,11-dioxo-indeno[1,2-c]isoquinoline Dihydrochloride], in [1], the “Top 1: compound-induced DNA cleavage due to Top1 poisoning” value (shortened to “Top 1: compound-induced DNA cleavage due”) was “++ (++, between 50 and 75% activity)”. Moreover, the IC50 in [2] was 60000 nM and > 111000 nM; in [3], over 111000 nM. The compound further had an activity at 10 µM in [4] of 12.2%. Further, the GI50 in data set [5] came out at 1450 nM; in [6], 537 nM; in data set [7] it was 1350 nM; in data set [8], 2290 nM; in [9], 1120 nM; in data set [10], 1910 nM. For the same compound, the GI50 in data set [11] worked out at 417 nM; in [12], 1510 nM.

`CN(C)CCCn1c2c(c3ccncc3c1=O)C(=O)c1ccccc1-2` [Compound 46, 3-Aza-5,6-dihydro-6-(3-(dimethylamino)propyl)-5,11-dioxo-11H-indeno[1,2-c]isoquinoline] gave a melting point of 168 to 170 °C. For the same compound, the “Top 1: compound-induced DNA cleavage due” value in data set [1] was “++ (++, between 50 and 75% activity)”. In addition, in data set [6], the GI50 was determined as 380 nM. For the same compound, in [8], the GI50 is 2000 nM. The GI50 in [12] is 977 nM.

Compound `O=C1c2ccccc2-c2c1c1ncccc1c(=O)n2CCCn1ccnc1` [Compound 40, 1-Aza-5,6-dihydro-6-(3-(1H-imidazol-1-yl)propyl)-5,11-dioxo-indeno[1,2-c]isoquinoline] yielded a melting point of 242 to 243 °C. In addition, the “Top 1: compound-induced DNA cleavage due” value in [1] is “++ (++, between 50 and 75% activity)”. Besides, the IC50 in data set [2] was over 111000 nM. In [3], the 50% inhibitory concentration (IC50) was over 111000 nM. In addition, in data set [4], the “Mean Growth %” value is recorded as 83.6%.

`O=C1c2ccccc2-c2c1c1cnccc1c(=O)n2CCCn1ccnc1` [Compound 41, 2-Aza-5,6-dihydro-6-(3-(1H-imidazol-1-yl)propyl)-5,11-dioxo-indeno[1,2-c]isoquinoline] gave a melting point of 274 to 275 °C. The “Top 1: compound-induced DNA cleavage due” value in data set [1] was “++ (++, between 50 and 75% activity)”. Besides, in data set [2], the IC50 is over 111000 nM. Also, the IC50 in [3] was over 111000 nM. In addition, the “Mean Growth %” value in [4] came out at 67.8%.

The compound `CN(C)CCCn1c2c(c3cccnc3c1=O)C(=O)c1ccccc1-2` [Compound 47, 4-Aza-5,6-dihydro-6-(3-(dimethylamino)propyl)-5,11-dioxo-indeno[1,2-c]isoquinoline] came in with a melting point of 183 to 184 °C. Moreover, the “Top 1: compound-induced DNA cleavage due” value in data set [1] is “+++ (+++, between 75 and 95% activity)”. Also, the IC50 in data set [2] was about 111000 nM. Moreover, in data set [3], the IC50 was over 111000 nM. Further, the activity at 10 µM in data set [4] is 5.45%. Besides, the GI50 in data set [6] amounted to 437 nM. Besides, the GI50 in data set [7] was 1290 nM. Moreover, the 50% growth inhibitory concentration (GI50) in data set [8] turned out to be 2400 nM. For the same compound, in [9], the GI50 was found to be 1120 nM. In data set [10], the GI50 was 1910 nM. The GI50 in [11] turned out to be 363 nM. Besides, in data set [12], the GI50 worked out at 1260 nM.

The compound `O=C1c2ccccc2-c2c1c1ccncc1c(=O)n2CCCn1ccnc1` [Compound 42, 3-Aza-5,6-dihydro-6-(3-(1H-imidazol-1-yl)propyl)-5,11-dioxo-11H-indeno[1,2-c]isoquinoline] gave a melting point of 251 to 252 °C. Further, in data set [1], the “Top 1: compound-induced DNA cleavage due” value was “+ (+, between 20 and 50%activity)”. Besides, the IC50 in data set [2] is over 111000 nM. For the same compound, the IC50 in [3] is over 111000 nM. The “Mean Growth %” value in [4] is reported as 47.5%.

With `O=C1c2ccccc2-c2c1c1cccnc1c(=O)n2C[C@H](O)CO` [Compound 51, (2′S)-4-Aza-5,6-dihydro-6-(2′,3′-dihydroxypropyl)-5,11-dioxo-indeno[1,2-c]isoquinoline], the melting point is 247 to 255 °C. In addition, in [1], the “Top 1: compound-induced DNA cleavage due” value is “+ (+, between 20 and 50%activity)”. Further, the IC50 in data set [2] was over 111000 nM. For the same compound, the IC50 in data set [3] was over 111000 nM. Further, the “Mean Growth %” value in [4] stood at 61.7%.

As for `O=C1c2ccccc2-c2c1c1ncccc1c(=O)n2C[C@H](O)CO` [Compound 48, (2′S)-1-Aza-5,6-dihydro-6-(2′,3′-dihydroxypropyl)-5,11-dioxo-indeno[1,2-c]isoquinoline], the melting point was 245 to 250 °C (dec.). In addition, in [1], the “Top 1: compound-induced DNA cleavage due” value is “+ (+, between 20 and 50%activity)”. Besides, the IC50 in [2] is over 111000 nM. The IC50 in data set [3] is over 111000 nM. In addition, the “Mean Growth %” value in data set [4] worked out at 100%.

Source of the values: patent US10759795B2, “Aza-A-ring indenoisoquinoline topoisomerase I poisons” (Purdue Research Foundation, priority 2016, dated 2020).
